Test results as given in patent publication US12077503B2, “Substituted cyclic amides and their use as herbicides” (FMC CORPORATION, priority 2015, dated 2024).

Key:
Format in all cases: in vivo
[1] = system: barnyardgrass (Echinochloa crus-galli); assay: Test G Pre-Emergence Protocol; conditions: Echinochloa crus-galli, pre-emergence, 312 h, evaluated after 13 days; for pest or weed control at 15.625 g/ha: 15.625 g ai/ha, read-out: Barnyard grass damage rating (100=total damage to plant; 0=no damage to plant); for pest or weed control at 62.5 g/ha: 62.5 g ai/ha, 100=total damage to plant, 0=no damage to plant, read-out: plant damage rating, Barnyardgrass; for pest or weed control at 250 g/ha: 250 g ai/ha, read-out: Barnyardgrass damage rating (100=total damage to plant; 0=no damage to plant)
Procedure, shortened: (§1)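 Glasshouse pre-emergence test: soil-sown seeds, sprayed after 1 d at 15.625, 62.5 or 250 g/ha. Conditions 24/16° C day/night, 14 h light, 65% humidity, watering twice daily. Rating 13 d post-spray (100 = total damage).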

[2] = system: corn (Zea mays); assay: Test G Pre-Emergence Protocol; conditions: Zea mays, pre-emergence, 312 h, evaluated after 13 days; for plant injury at 15.625 g/ha: 15.625 g ai/ha; for plant injury at 15.625 g/ha / plant injury at 250 g/ha: read-out: Corn damage rating (100=total damage to plant; 0=no damage to plant); for plant injury at 62.5 g/ha: 62.5 g ai/ha, 100=total damage to plant, 0=no damage to plant, read-out: plant damage rating, Corn; for plant injury at 250 g/ha: 250 g ai/ha
Procedure, shortened: as §1

[3] = system: giant foxtail (Setaria faberi); assay: Test G Pre-Emergence Protocol; conditions: Setaria faberi, pre-emergence, 312 h, evaluated after 13 days; for pest or weed control at 15.625 g/ha: 15.625 g ai/ha; for pest or weed control at 15.625 g/ha / pest or weed control at 250 g/ha: read-out: Foxtail, Giant damage rating (100=total damage to plant; 0=no damage to plant); for pest or weed control at 62.5 g/ha: 62.5 g ai/ha, 100=total damage to plant, 0=no damage to plant, read-out: plant damage rating, Foxtail, Giant; for pest or weed control at 250 g/ha: 250 g ai/ha
Procedure, shortened: as §1

[4] = system: ivy-leaved morning glory (Ipomoea hederacea); assay: Test G Pre-Emergence Protocol; conditions: Ipomoea, pre-emergence, 312 h, evaluated after 13 days; for pest or weed control at 15.625 g/ha: 15.625 g ai/ha, read-out: Morning-glory, Ivy-leaved damage rating (100=total damage to plant; 0=no damage to plant); for pest or weed control at 62.5 g/ha: 62.5 g ai/ha, 100=total damage to plant, 0=no damage to plant, read-out: plant damage rating, Morningglory, Ivy-leaved; for pest or weed control at 250 g/ha: 250 g ai/ha, read-out: Morningglory, Ivy-leaved damage rating (100=total damage to plant; 0=no damage to plant)
Procedure, shortened: as §1

[5] = system: redroot pigweed (Amaranthus retroflexus); assay: Test G Pre-Emergence Protocol; conditions: Amaranthus retroflexus, pre-emergence, 312 h, evaluated after 13 days; for pest or weed control at 15.625 g/ha: 15.625 g ai/ha; for pest or weed control at 15.625 g/ha / pest or weed control at 250 g/ha: read-out: Pigweed, Redroot damage rating (100=total damage to plant; 0=no damage to plant); for pest or weed control at 62.5 g/ha: 62.5 g ai/ha, 100=total damage to plant, 0=no damage to plant, read-out: plant damage rating, Pigweed, Redroot; for pest or weed control at 250 g/ha: 250 g ai/ha
Procedure, shortened: as §1

[6] = system: velvetleaf (Abutilon theophrasti); assay: Test G Pre-Emergence Protocol; conditions: Abutilon theophrasti, pre-emergence, 312 h, evaluated after 13 days; for pest or weed control at 15.625 g/ha: 15.625 g ai/ha; for pest or weed control at 15.625 g/ha / pest or weed control at 250 g/ha: read-out: Velvetleaf damage rating (100=total damage to plant; 0=no damage to plant); for pest or weed control at 62.5 g/ha: 62.5 g ai/ha, 100=total damage to plant, 0=no damage to plant, read-out: plant damage rating, Velvetleaf; for pest or weed control at 250 g/ha: 250 g ai/ha
Procedure, shortened: as §1

[7] = system: barnyardgrass (Echinochloa crus-galli); assay: Test G Post-Emergence Protocol; conditions: Echinochloa crus-galli, post-emergence, 312 h; for pest or weed control at 15.625 g/ha: 15.625 g ai/ha, evaluated after 13 days (100=total damage to plant; 0=no damage to plant), read-out: Barnyardgrass damage rating; for pest or weed control at 62.5 g/ha: 62.5 g ai/ha, read-out: Barnyardgrass damage rating (100=total damage to plant; 0=no damage to plant); for pest or weed control at 62.5 g/ha / pest or weed control at 250 g/ha: evaluated after 13 days; for pest or weed control at 250 g/ha: 250 g ai/ha, read-out: damage to plant, Barnyardgrass (100=total damage to plant; 0=no damage to plant)
Procedure, shortened: (§2)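 Values are percent visual injury at 13 days after treatment (0 none, 100 total). Treatment was a post-emergence spray at 15.625, 62.5 or 250 g/ha on 8-day-old pot plants kept at 24/16 °C.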

[8] = system: corn (Zea mays); assay: Test G Post-Emergence Protocol; conditions: Zea mays, post-emergence, 312 h; for plant injury at 15.625 g/ha: 15.625 g ai/ha, evaluated after 13 days (100=total damage to plant; 0=no damage to plant), read-out: Corn damage rating; for plant injury at 62.5 g/ha: 62.5 g ai/ha, read-out: Corn damage rating (100=total damage to plant; 0=no damage to plant); for plant injury at 62.5 g/ha / plant injury at 250 g/ha: evaluated after 13 days; for plant injury at 250 g/ha: 250 g ai/ha, read-out: damage to plant, Corn (100=total damage to plant; 0=no damage to plant)
Procedure, shortened: as §2

[9] = system: giant foxtail (Setaria faberi); assay: Test G Post-Emergence Protocol; conditions: Setaria faberi, post-emergence, 312 h; for pest or weed control at 15.625 g/ha: 15.625 g ai/ha, evaluated after 13 days (100=total damage to plant; 0=no damage to plant), read-out: Foxtail, Giant damage rating; for pest or weed control at 62.5 g/ha: 62.5 g ai/ha, read-out: Foxtail, Giant damage rating (100=total damage to plant; 0=no damage to plant); for pest or weed control at 62.5 g/ha / pest or weed control at 250 g/ha: evaluated after 13 days; for pest or weed control at 250 g/ha: 250 g ai/ha, read-out: damage to plant, Foxtail, Giant (100=total damage to plant; 0=no damage to plant)
Procedure, shortened: as §2

[10] = system: ivy-leaved morning glory (Ipomoea hederacea); assay: Test G Post-Emergence Protocol; conditions: Ipomoea, post-emergence, 312 h; for pest or weed control at 15.625 g/ha: 15.625 g ai/ha, evaluated after 13 days (100=total damage to plant; 0=no damage to plant), read-out: Morningglory, Ivy-leaved damage rating; for pest or weed control at 62.5 g/ha: 62.5 g ai/ha, read-out: Morningglory, Ivy-leaved damage rating (100=total damage to plant; 0=no damage to plant); for pest or weed control at 62.5 g/ha / pest or weed control at 250 g/ha: evaluated after 13 days; for pest or weed control at 250 g/ha: 250 g ai/ha, read-out: damage to plant, Morningglory, Ivy-leaved (100=total damage to plant; 0=no damage to plant)
Procedure, shortened: as §2

[11] = system: redroot pigweed (Amaranthus retroflexus); assay: Test G Post-Emergence Protocol; conditions: Amaranthus retroflexus, post-emergence, 312 h; for pest or weed control at 15.625 g/ha: 15.625 g ai/ha, evaluated after 13 days (100=total damage to plant; 0=no damage to plant), read-out: Pigweed, Redroot damage rating; for pest or weed control at 62.5 g/ha: 62.5 g ai/ha, read-out: Pigweed, Redroot damage rating (100=total damage to plant; 0=no damage to plant); for pest or weed control at 62.5 g/ha / pest or weed control at 250 g/ha: evaluated after 13 days; for pest or weed control at 250 g/ha: 250 g ai/ha, read-out: damage to plant, Pigweed, Redroot (100=total damage to plant; 0=no damage to plant)
Procedure, shortened: as §2

[12] = system: velvetleaf (Abutilon theophrasti); assay: Test G Post-Emergence Protocol; conditions: Abutilon theophrasti, post-emergence, 312 h; for pest or weed control at 15.625 g/ha: 15.625 g ai/ha, evaluated after 13 days (100=total damage to plant; 0=no damage to plant), read-out: Velvetleaf damage rating; for pest or weed control at 62.5 g/ha: 62.5 g ai/ha, read-out: Velvetleaf damage rating (100=total damage to plant; 0=no damage to plant); for pest or weed control at 62.5 g/ha / pest or weed control at 250 g/ha: evaluated after 13 days; for pest or weed control at 250 g/ha: 250 g ai/ha, read-out: damage to plant, Velvetleaf (100=total damage to plant; 0=no damage to plant)
Procedure, shortened: as §2

Row | Structure (SMILES) | pest or weed control at 15.625 g/ha [1] | pest or weed control at 62.5 g/ha [1] | pest or weed control at 250 g/ha [1] | plant injury at 15.625 g/ha [2] | plant injury at 62.5 g/ha [2] | plant injury at 250 g/ha [2] | pest or weed control at 15.625 g/ha [3] | pest or weed control at 62.5 g/ha [3] | pest or weed control at 250 g/ha [3] | pest or weed control at 15.625 g/ha [4] | pest or weed control at 62.5 g/ha [4] | pest or weed control at 250 g/ha [4] | pest or weed control at 15.625 g/ha [5] | pest or weed control at 62.5 g/ha [5] | pest or weed control at 250 g/ha [5] | pest or weed control at 15.625 g/ha [6] | pest or weed control at 62.5 g/ha [6] | pest or weed control at 250 g/ha [6] | pest or weed control at 15.625 g/ha [7] | pest or weed control at 62.5 g/ha [7] | also measured
1 | CSc1ccccc1NC(=O)[C@@H]1C(=O)N(C)C[C@H]1c1ccc(C(F)(F)F)nc1 (racemic) [Compound 1584] | 0% | 0% | 90% | 0% | 0% | 70% | 0% | 50% | 90% | 0% | 0% | 10% | 0% | 0% | 60% | 0% | 0% | 20% | 0% | 0% | pest or weed control at 250 g/ha [7]: 70%; plant injury at 15.625 g/ha [8]: 0%; plant injury at 62.5 g/ha [8]: 10%; plant injury at 250 g/ha [8]: 0%; pest or weed control at 15.625 g/ha [9]: 0%; pest or weed control at 62.5 g/ha [9]: 40%; pest or weed control at 250 g/ha [9]: 80%; pest or weed control at 15.625 g/ha [10]: 0%; pest or weed control at 62.5 g/ha [10]: 20%; pest or weed control at 250 g/ha [10]: 10%; pest or weed control at 15.625 g/ha [11]: 0%; pest or weed control at 62.5 g/ha [11]: 0%; pest or weed control at 250 g/ha [11]: 40%; pest or weed control at 15.625 g/ha [12]: 0%; pest or weed control at 62.5 g/ha [12]: 0%; pest or weed control at 250 g/ha [12]: 20%
2 | CN1C[C@@H](c2ccnc(C(F)(F)F)c2)[C@H](C(=O)Nc2cccc(F)c2F)C1=O (racemic) [Compound 1585] | 70% | 90% | 90% | 0% | 80% | 80% | 70% | 80% | 90% | 0% | 30% | 80% | 0% | 0% | 20% | 0% | 0% | 30% | 70% | 80% | pest or weed control at 250 g/ha [7]: 70%; plant injury at 15.625 g/ha [8]: 30%; plant injury at 62.5 g/ha [8]: 60%; plant injury at 250 g/ha [8]: 80%; pest or weed control at 15.625 g/ha [9]: 60%; pest or weed control at 62.5 g/ha [9]: 60%; pest or weed control at 250 g/ha [9]: 70%; pest or weed control at 15.625 g/ha [10]: 20%; pest or weed control at 62.5 g/ha [10]: 30%; pest or weed control at 250 g/ha [10]: 70%; pest or weed control at 15.625 g/ha [11]: 0%; pest or weed control at 62.5 g/ha [11]: 20%; pest or weed control at 250 g/ha [11]: 30%; pest or weed control at 15.625 g/ha [12]: 0%; pest or weed control at 62.5 g/ha [12]: 20%; pest or weed control at 250 g/ha [12]: 30%
3 | CN1C[C@@H](c2ccc(C(F)(F)F)cc2)[C@H](C(=O)Nc2csc(C(F)(F)F)n2)C1=O (racemic) [Compound 1587] | 0% | 0% | 0% | 0% | 10% | 0% | 0% | 0% | 0% | 0% | 0% | 0% | 0% | 0% | 10% | 0% | 0% | 0% | 0% | 20% | pest or weed control at 250 g/ha [7]: 40%; plant injury at 15.625 g/ha [8]: 0%; plant injury at 62.5 g/ha [8]: 0%; plant injury at 250 g/ha [8]: 0%; pest or weed control at 15.625 g/ha [9]: 0%; pest or weed control at 62.5 g/ha [9]: 20%; pest or weed control at 250 g/ha [9]: 60%; pest or weed control at 15.625 g/ha [10]: 0%; pest or weed control at 62.5 g/ha [10]: 0%; pest or weed control at 250 g/ha [10]: 40%; pest or weed control at 15.625 g/ha [11]: 0%; pest or weed control at 62.5 g/ha [11]: 10%; pest or weed control at 250 g/ha [11]: 70%; pest or weed control at 15.625 g/ha [12]: 0%; pest or weed control at 62.5 g/ha [12]: 0%; pest or weed control at 250 g/ha [12]: 0%
